Assay results taken from article PMC7725003, “Systematically Studying the Optimal Amino Acid Distribution Patterns of the Amphiphilic Structure by Using the Ultrashort Amphiphiles” (Frontiers in Microbiology, 2020).
Where no end group is shown, it is not given here.

Legend:
[1] = system: E. coli 25922; format: cell-based, Escherichia coli; settings: 25922, 24 h
Description: (§1) The antimicrobial activities of the peptides were measured using a method adapted from the National Committee for Clinical Laboratory Standards (NCCLS) with some modifications ([Chou et al., 2016]). The specific procedure for these assays has been previously described. In brief, the bacterial cells were grown to a mid-logarithmic phase and diluted in MHB to an ultimate concentration of 0.5–1 × 10^6 CFU mL^–1. Subsequently, the peptides were consecutively diluted in a 0.2% BSA solution and then added to a bacterial solution in a 96-well plate at identical volumes. After incubation for 24 h at 37°C, the MICs were determined to be the lowest peptide concentration that inhibited 95% of the bacterial growth by monitoring the absorbance at 492 nm using a microplate reader. Subsequently, 50 μL of each incubation mixture was further transferred to agar plates and incubated overnight. The minimum bactericidal concentrations (MBCs) were determined as the lowest peptide concentration that killed greater than 99.9% of the bacterial cells. Every assay was reproduced more than 3 times.

[2] = system: E. coli O78; format: cell-based, Escherichia coli; settings: O78, 24 h
Description: as §1

[3] = system: E. coli UB1005; format: cell-based, Escherichia coli; settings: UB1005, 24 h
Description: as §1

[4] = system: S. typhimurium 14028; format: cell-based, Salmonella typhimurium; settings: 14028, 24 h
Description: as §1

[5] = system: S. typhimurium 7731; format: cell-based, Salmonella typhimurium; settings: 7731, 24 h
Description: as §1

[6] = system: S. pullorum 7913; format: cell-based, Salmonella pullorum; settings: 7913, 24 h
Description: as §1

[7] = system: P. aeruginosa 27853; format: cell-based, Pseudomonas aeruginosa; settings: 27853, 24 h
Description: as §1

[8] = system: Gram-negative bacteria; settings: for GM, Gram-negative bacteria: geometric mean of MICs (Table 3); for TI, Gram-negative bacteria: therapeutic index TI = MHC/GM MIC
Description: (§2) The antimicrobial activity of AMPs is the most decisive index for evaluating the clinical application of antimicrobial drugs.
as §1, with “The minimum bactericidal concentrations (MBCs) were determined as the lowest peptide concentration that killed greater than 99.9% of the bacterial cells.” left out

[9] = system: Gram-positive bacteria; settings: for GM, Gram-positive bacteria: geometric mean of MICs (Table 3); for TI, Gram-positive bacteria: therapeutic index TI = MHC/GM MIC
Description: as §2
as §1, with “The minimum bactericidal concentrations (MBCs) were determined as the lowest peptide concentration that killed greater than 99.9% of the bacterial cells.” left out

[10] = system: S. aureus 25923; format: cell-based, Staphylococcus aureus; settings: 25923, 24 h
Description: as §1

[11] = system: S. aureus 29213; format: cell-based, Staphylococcus aureus; settings: 29213, 24 h
Description: as §1

[12] = system: S. epidermidis 12228; format: cell-based, Staphylococcus epidermidis; settings: 12228, 24 h
Description: as §1

[13] = system: MRSA 43300; format: cell-based, methicillin-resistant S. aureus; settings: 43300, 24 h
Description: as §1

[14] = system: B. subtilis 63501; format: cell-based, Bacillus subtilis; settings: 63501, 24 h
Description: as §1

[15] = system: E. faecalis 29212; format: cell-based, Enterococcus faecalis; settings: 29212, 24 h
Description: as §1

[16] = system: Listeria monocytogenes CGMCC 1.1075; format: cell-based; settings: CGMCC 1.1075, 24 h
Description: as §1

[17] = system: all of the tested bacterial strains; experiment: Geometric mean of MICs, all tested bacterial strains; format: cell-based; settings: for GM, All: geometric mean of MICs across all tested strains; for TI, All: therapeutic index TI = MHC/GM MIC
Description: The antimicrobial activity of AMPs is the most decisive index for evaluating the clinical application of antimicrobial drugs. Many antimicrobial agents inhibit bacterial growth rather than kill the bacteria quickly, and long-term infections are pathogens that are not completely killed, which results in bacterial severe drug resistance. […] The geometric mean (GM) values of the MICs/MBCs of the two series across all of the tested bacterial strains are represented in Table 3, which depicts the average bacteriostatic/bactericidal level of a peptide.
as §1

[18] = system: E. coli ATCC 25922; experiment: Salt sensitivity assay (MIC); format: cell-based, Escherichia coli; settings: for MIC, FeCl3: 4 μM FeCl3; for MIC, NH4Cl: 6 μM NH4Cl; for MIC, ZnCl2: 8 μM ZnCl2; for MIC, MgCl2: 1 mM MgCl2; for MIC, CaCl2: 2 mM CaCl2; for MIC, KCl: 4.5 mM KCl; for MIC, NaCl: 150 mM NaCl; for MIC, Control: no added salt, three independent assays
Description: as §1
(§3) The salt sensitivities of the peptides were determined. E. coli ATCC 25922 and S. aureus ATCC 29213 were incubated in the presence of various ultimate concentrations of physiological salts (150 mM NaCl, 4.5 mM KCl, 6 μM NH4Cl, 8 μM ZnCl2, 1 mM MgCl2, 2mM CaCl2, and 4 μM FeCl3) according to our previous protocol ([Yang et al., 2019]). These tests were performed under the MICs, and three independent assays were performed.

[19] = system: S. aureus 29213; experiment: Salt sensitivity assay (MIC); format: cell-based, Staphylococcus aureus; settings: for MIC, FeCl3: 4 μM FeCl3; for MIC, NH4Cl: 6 μM NH4Cl; for MIC, ZnCl2: 8 μM ZnCl2; for MIC, MgCl2: 1 mM MgCl2; for MIC, CaCl2: 2 mM CaCl2; for MIC, KCl: 4.5 mM KCl; for MIC, NaCl: 150 mM NaCl; for MIC, Control: no added salt, three independent assays
Description: as §1, §3

WWRWWRRRW-NH2 [W1]
2 µM: MIC [10] | MIC [11] | MIC [12] | MIC [13] | MBC [14] | MIC, FeCl3 [18] | MIC, ZnCl2 [18] | MIC, MgCl2 [18] | MIC, CaCl2 [18] | MIC, FeCl3 [19] | MIC, NH4Cl [19] | MIC, ZnCl2 [19] | MIC, MgCl2 [19] | MIC, CaCl2 [19] | MIC, KCl [19] | MIC, Control [19]
18.23: TI, All [17]
1 µM: MIC [14]
4.67 µM: GM, Gram-negative bacteria [8]
4 µM: MIC [1] | MIC [2] | MIC [3] | MIC [4] | MIC [5] | MIC [6] | MBC [10] | MBC [11] | MBC [12] | MBC [13] | MIC [15] | MIC, NH4Cl [18] | MIC, KCl [18] | MIC, Control [18] | MIC, NaCl [19]
13.70: TI, Gram-negative bacteria [8]
8 µM: MBC [1] | MBC [2] | MBC [3] | MBC [4] | MBC [5] | MBC [6] | MIC [7] | MBC [15] | MIC [16] | MIC, NaCl [18]
26.23: TI, Gram-positive bacteria [9]
2.44 µM: GM, Gram-positive bacteria [9]
16 µM: MBC [7] | MBC [16]
3.51 µM: GM, All [17]

WWWRRRRWW-NH2 [W4]
21.77: TI, Gram-negative bacteria [8]
16 µM: MBC [2] | MBC [3] | MBC [4] | MBC [5] | MBC [7] | MIC [16] | MIC, MgCl2 [18] | MIC, KCl [18] | MIC, NaCl [18]
4 µM: MIC [1] | MIC [6] | MBC [10] | MBC [11] | MBC [12] | MBC [13] | MIC [15] | MIC, FeCl3 [18] | MIC, ZnCl2 [18] | MIC, Control [18]
2 µM: MIC [10] | MIC [11] | MIC [12] | MIC [13] | MBC [14] | MIC, NH4Cl [18] | MIC, FeCl3 [19] | MIC, CaCl2 [19] | MIC, Control [19]
4.18 µM: GM, All [17]
2.69 µM: GM, Gram-positive bacteria [9]
30.62: TI, All [17]
8 µM: MBC [1] | MIC [2] | MIC [3] | MIC [4] | MIC [5] | MBC [6] | MIC [7] | MBC [15] | MIC, CaCl2 [18]
1 µM: MIC [14] | MIC, NH4Cl [19] | MIC, ZnCl2 [19] | MIC, MgCl2 [19] | MIC, KCl [19] | MIC, NaCl [19]
5.88 µM: GM, Gram-negative bacteria [8]
32 µM: MBC [16]
47.58: TI, Gram-positive bacteria [9]
